These results are taken from the NIST ThermoML archive (doi:10.1021/je060479w).

Structures are written as SMILES. Numbers after ± are expanded uncertainties.

For the data set the following is noted: for electrical conductivity / mass density / viscosity: 298.2 K, 101.33 kPa, Liquid; for electrical conductivity: Alternating current cell with electrodes; for mass density: Pycnometric method; for viscosity: rotary viscometer; for Normal melting temperature: Crystal; for Normal melting temperature / Glass transition temperature: DTA.

Consider `CC(=O)[O-].[NH3+]CCO` [2-hydroxyethylammonium acetate], for which the electrical conductivity came to 0.0692 ± 0.0001 S/m; the mass density – broadly, mass per unit of volume – turned out to be 1120 ± 26 kg/m3; the viscosity (as a rule, the resistance of a fluid to flow) was found to be 640 mPa·s; the Normal melting temperature was -70.9 ± 0.5 °C. The Glass transition temperature is -75.8 ± 5 °C.
On the same counts, the results for `NCCO.O=CO` [2-hydroxyethylammonium formate] are 0.3291 ± 0.0001 S/m, 1204 ± 26 kg/m3, 118 mPa·s, -82.2 ± 0.5 °C and -85.9 ± 5 °C.
The corresponding values for `CC(O)C(=O)[O-].[NH3+]CCO` (stereo unspecified) [2-hydroxyethylammonium lactate] are 0.03775 ± 1e-05 S/m, 1202 ± 26 kg/m3, 1200 mPa·s, -58.5 ± 0.5 °C and -63.7 ± 5 °C.
With `O=CO.OCCN(CCO)CCO` [triethanolamine formate], the Normal melting temperature was 67.6 ± 0.5 °C.
On to `CC(O)C(=O)O.OCCN(CCO)CCO` [triethanolamine lactate], for which the electrical conductivity amounted to 0.009 ± 0.001 S/m, the mass density turned out to be 1222 ± 26 kg/m3, the viscosity is recorded as 455 mPa·s and the Normal melting temperature was -54.8 ± 0.5 °C. The Glass transition temperature is -59.4 ± 5 °C.
`CC(=O)O.OCCN(CCO)CCO` [triethanolammonium acetate]: the electrical conductivity stood at 0.04958 ± 1e-05 S/m, the mass density came out at 1120 ± 26 kg/m3, the viscosity is listed as 342 mPa·s and the Normal melting temperature was -72.2 ± 0.5 °C. For the same compound, the Glass transition temperature is -78.8 ± 5 °C.
